This note sets out measurements from patent US20240425523A1, “Compounds for the Degradation of EGFR Kinase” (Beigene Switzerland GMBH, priority 2023, published 2024).

Assay [1] has as its target T1, EGFR-L858R/C797S (H1975-clone #8 cells) (Homo sapiens, UniProt P00533, C797S/L858R).
T1 construct: expressed in transfected cells; host or cells: H1975 (endogenous EGFR knocked out, clone #8)
Kind of assay: Cell degradation of EGFR, HTRF assay, H1975-clone#8 (L858R/C797S) cells. It counts as cell-based. Particulars: 16 h treatment; for DC50: EGFR degradation; for Dmax: maximum percentage of degradation. The method, then:
The EGFR over-expressed cells then underwent knockout, in which the EGFR targeting sgRNA was designed to only target the endogenous EGFR copies and preserve the exogenous EGFR copies. Followed by the knockout, the edited H1975 cells were seeded in 96 well plates at the concentration of […], cultured for about 2 weeks to allow single clones formation. The formed clones were screened by DNA sequencing and whole exon sequencing analysis for the desired edition.
(§1) H1975-#8 and BaF3-L858R cells are treated with compounds diluted in 0.1% DMSO cell culture medium on day 2, incubate for 16 h, 37° C., 5% CO2. the final concentration of compounds in all assay is start with 10 uM, 5-fold dilution, total 8 doses were included.
(§2) After 16 h treatment, for H1975-#8 cells, add 100 ul HTRF 1× lysis buffer to each well; for BaF3-L858R cells, add 20 μl 4× lysis buffer to each well; seal the plate and incubate 1 hour at room temperature on a plate shaker; Once the cells are lysed, 16 μL of cell lysate are transferred to a PE 384-well HTRF detection plate; 4 μL of pre-mixed HTRF antibodies are added to each well; Cover the plate with a plate sealer, spin 1000 rpm for 1 min, Incubate overnight at room temperature; Read on BMG PheraStar with HTRF protocol (337 nm-665 nm-620 nm).
(§3) High control=Cell group with added DMSO and without compound, indicating microplate readings without EGFR degradation;
(§4) Dmax is the maximum percentage of inhibition (degradation).
(§5) The IC50 (DC50) value of a compound can be obtained by fitting the following equation
(§6) Y=Bottom+(TOP−Bottom)/(1+((IC50/X)^hillslope))
(§7) Wherein, X and Y are known values, and IC50, Hillslope, Top and Bottom are the parameters obtained by fitting with software. […] The experimental data were fitted by calculating and analyzing with Dotmatics data analysis software.
In general terms: TR-FRET usually uses a lanthanide donor and a delayed reading to cut background.

Assay [2] concerns the target T2, EGFR L858R (BaF3-L858R cells) (Homo sapiens, UniProt P00533, L858R).
T2 construct: host or cells: BaF3
In words: Cell degradation of EGFR, HTRF assay, BaF3-L858R cells. It counts as cell-based. Particulars: 16 h treatment; for DC50: EGFR degradation; for Dmax: maximum percentage of degradation. The method, then: BaF3-L858R (abbv. L858R) cell were purchased from Kangyuan Bochuang Biotechnology (Beijing) Co., Ltd.
as §1, §2, §3, §4, §5, §6, §7

T1 sequence (P00533 25-1210 C797S/L858R): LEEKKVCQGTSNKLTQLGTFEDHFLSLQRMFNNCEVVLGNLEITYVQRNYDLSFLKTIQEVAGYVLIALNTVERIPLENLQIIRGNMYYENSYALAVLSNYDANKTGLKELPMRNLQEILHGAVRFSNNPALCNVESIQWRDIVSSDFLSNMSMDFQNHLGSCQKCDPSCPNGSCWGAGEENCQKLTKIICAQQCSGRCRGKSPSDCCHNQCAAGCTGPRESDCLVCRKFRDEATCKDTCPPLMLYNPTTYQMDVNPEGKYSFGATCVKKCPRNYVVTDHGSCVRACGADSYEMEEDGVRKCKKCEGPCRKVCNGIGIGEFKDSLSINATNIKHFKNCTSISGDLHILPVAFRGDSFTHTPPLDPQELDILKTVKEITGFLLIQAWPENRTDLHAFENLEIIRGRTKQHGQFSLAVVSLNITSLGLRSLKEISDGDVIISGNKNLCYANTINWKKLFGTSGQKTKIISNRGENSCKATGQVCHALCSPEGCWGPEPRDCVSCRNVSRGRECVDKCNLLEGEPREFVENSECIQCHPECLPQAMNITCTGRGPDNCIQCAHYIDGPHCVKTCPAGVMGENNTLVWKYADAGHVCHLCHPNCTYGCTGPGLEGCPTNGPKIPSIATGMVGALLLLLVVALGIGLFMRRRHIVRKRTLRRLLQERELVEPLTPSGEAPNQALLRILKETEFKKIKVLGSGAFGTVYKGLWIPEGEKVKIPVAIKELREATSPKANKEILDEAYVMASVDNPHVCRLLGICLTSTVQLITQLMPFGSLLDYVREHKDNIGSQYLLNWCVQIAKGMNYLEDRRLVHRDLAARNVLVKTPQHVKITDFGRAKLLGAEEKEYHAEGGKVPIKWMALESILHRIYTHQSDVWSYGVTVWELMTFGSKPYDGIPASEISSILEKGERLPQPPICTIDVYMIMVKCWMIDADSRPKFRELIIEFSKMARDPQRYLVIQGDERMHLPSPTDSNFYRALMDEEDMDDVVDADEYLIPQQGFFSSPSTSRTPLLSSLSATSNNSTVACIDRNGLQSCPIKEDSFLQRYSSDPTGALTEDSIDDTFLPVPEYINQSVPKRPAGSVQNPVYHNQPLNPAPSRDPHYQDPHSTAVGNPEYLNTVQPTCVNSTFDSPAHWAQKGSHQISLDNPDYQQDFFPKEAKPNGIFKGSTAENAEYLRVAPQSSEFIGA
T2 sequence (P00533 25-1210 L858R): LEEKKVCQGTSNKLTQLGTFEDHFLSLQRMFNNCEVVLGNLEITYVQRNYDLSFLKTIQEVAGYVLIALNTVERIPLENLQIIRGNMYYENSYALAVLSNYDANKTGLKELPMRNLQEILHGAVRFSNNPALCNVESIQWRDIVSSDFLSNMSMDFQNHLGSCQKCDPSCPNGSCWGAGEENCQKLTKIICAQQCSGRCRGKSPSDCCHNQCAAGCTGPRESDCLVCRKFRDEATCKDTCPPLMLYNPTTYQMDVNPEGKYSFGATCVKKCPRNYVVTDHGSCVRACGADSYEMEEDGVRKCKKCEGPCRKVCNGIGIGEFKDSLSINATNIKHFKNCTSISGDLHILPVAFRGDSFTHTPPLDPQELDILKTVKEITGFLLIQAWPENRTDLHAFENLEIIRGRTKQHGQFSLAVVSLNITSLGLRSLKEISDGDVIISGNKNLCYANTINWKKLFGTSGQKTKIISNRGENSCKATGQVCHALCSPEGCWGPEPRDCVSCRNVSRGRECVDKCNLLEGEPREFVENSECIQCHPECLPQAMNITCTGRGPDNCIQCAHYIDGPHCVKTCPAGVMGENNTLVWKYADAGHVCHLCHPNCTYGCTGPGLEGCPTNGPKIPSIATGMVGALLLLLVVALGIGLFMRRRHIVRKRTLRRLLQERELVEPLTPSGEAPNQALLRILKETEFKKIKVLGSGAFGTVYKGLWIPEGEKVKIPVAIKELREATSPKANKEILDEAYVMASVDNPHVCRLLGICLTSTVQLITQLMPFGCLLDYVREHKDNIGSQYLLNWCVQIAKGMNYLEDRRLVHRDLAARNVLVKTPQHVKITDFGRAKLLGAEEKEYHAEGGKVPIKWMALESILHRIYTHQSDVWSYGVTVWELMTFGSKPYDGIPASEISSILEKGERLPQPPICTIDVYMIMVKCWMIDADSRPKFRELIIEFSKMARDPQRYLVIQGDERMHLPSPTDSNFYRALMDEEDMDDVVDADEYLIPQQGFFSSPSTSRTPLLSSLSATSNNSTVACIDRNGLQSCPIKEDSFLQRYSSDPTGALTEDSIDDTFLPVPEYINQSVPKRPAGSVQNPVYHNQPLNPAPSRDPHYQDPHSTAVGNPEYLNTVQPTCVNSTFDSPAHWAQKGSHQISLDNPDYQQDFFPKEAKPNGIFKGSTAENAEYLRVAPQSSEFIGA

By DC50 is commonly meant the concentration giving 50% degradation. The term Dmax denotes the greatest extent of degradation seen. For the molecule `COC[C@@H]1CN(c2ccc3c(c2)N2C[C@@H]4CC[C@H](COc5c(cnn5C)-c5cc(cc(C)n5)C(=O)/N=C/2N3)C4)CCN1C1CCN(c2cc(F)c([C@H]3CCC(=O)NC3=O)c(F)c2)CC1` [Example 9, (R)-3-(4-(4-((S)-4-((7^1R,7^3S,E)-1^1,2^6-dimethyl-3-oxo-5^2,5^3-dihydro-1^1H,5^1H-9-oxa-4-aza-5(2,1)-benzo[d]imidazola-2(2,4)-pyridina-1(4,5)-pyrazola-7(1,3)-cyclopentanacyclononaphane-5^6-yl)-2-(methoxymethyl)piperazin-1-yl)piperidin-1-yl)-2,6-difluorophenyl)piperidine-2,6-dione], in assay [1], the DC50 came to 4.28 nM and the Dmax was 71.7%. Also, in assay [2], the DC50 turned out to be 6.11 nM and the Dmax was determined as 86.6%.

For the molecule `Cc1cc2cc(n1)-c1cnn(C)c1OC[C@H]1CC[C@H](C1)CN1/C(=N/C2=O)Nc2ccc(N3CCN(CCc4c(C)cc(C5CCC(=O)NC5=O)nc4C)CC3)cc21` (some centres unmarked) [Example 7, 3-(5-(2-(4-((7^1R,7^3S,E)-1^1,2^6-dimethyl-3-oxo-5^2,5^3-dihydro-1^1H,5^1H-9-oxa-4-aza-5(2,1)-benzo[d]imidazola-2(2,4)-pyridina-1(4,5)-pyrazola-7(1,3)-cyclopentanacyclononaphane-5^6-yl)piperazin-1-yl)ethyl)-4,6-dimethylpyridin-2-yl)piperidine-2,6-dione], in assay [1], the DC50 was 2.03 nM and the Dmax is 45.4%. For the same molecule, in assay [2], the DC50 is 0.631 nM and the Dmax is 99.4%.

Consider `Cc1cc2cc(n1)-c1cnn(C)c1OC[C@H]1CC[C@H](C1)CN1/C(=N/C2=O)Nc2ccc(N3CCN(C4CCN(c5cc(F)c(C6CCC(=O)NC6=O)nc5C)CC4)CC3)cc21` (some centres unmarked) [Example 6, 3-(5-(4-(4-((7^1R,7^3S,E)-1^1,2^6-dimethyl-3-oxo-5^2,5^3-dihydro-1^1H,5^1H-9-oxa-4-aza-5(2,1)-benzo[d]imidazola-2(2,4)-pyridina-1(4,5)-pyrazola-7(1,3)-cyclopentanacyclononaphane-5^6-yl)piperazin-1-yl)piperidin-1-yl)-3-fluoro-6-methylpyridin-2-yl)piperidine-2,6-dione], for which the half-maximal degradation concentration (DC50) in assay [1] came to 1.2 nM; in assay [2], 3.1 nM. For the same molecule, the figures for the Dmax in assay [1] and in assay [2] were 86.6% and 101%, respectively.

Turning to `Cc1cc2cc(n1)-c1cnn(C)c1OC[C@H]1CC[C@H](C1)CN1/C(=N/C2=O)Nc2ccc(N3CCN([C@@H]4CCN(c5cc(F)c(C6CCC(=O)NC6=O)nc5C)C[C@@H]4F)CC3)cc21` (stereo partly drawn) [Example 14, 3-(5-((3S,4R)-4-(4-((7^1R,7^3S,E)-1^1,2^6-dimethyl-3-oxo-5^2,5^3-dihydro-1^1H,5^1H-9-oxa-4-aza-5(2,1)-benzo[d]imidazola-2(2,4)-pyridina-1(4,5)-pyrazola-7(1,3)-cyclopentanacyclononaphane-5^6-yl)piperazin-1-yl)-3-fluoropiperidin-1-yl)-3-fluoro-6-methylpyridin-2-yl)piperidine-2,6-dione], in assay [1], half-maximal degradation (DC50) was put at 0.616 nM and the Dmax was 90.9%. Also, in assay [2], the DC50 is 0.552 nM and the Dmax was 84%.

Regarding `Cc1cc2cc(n1)-c1cnn(C)c1OC[C@H]1CC[C@H](C1)CN1/C(=N/C2=O)Nc2ccc(N3CCN([C@@H]4CCN(c5c(C)cc(C6CCC(=O)NC6=O)nc5C)C[C@@H]4F)CC3)cc21` (stereo partly drawn) [Example 13, 3-(5-((3S,4R)-4-(4-((7^1R,7^3S,E)-1^1,2^6-dimethyl-3-oxo-5^2,5^3-dihydro-1^1H,5^1H-9-oxa-4-aza-5(2,1)-benzo[d]imidazola-2(2,4)-pyridina-1(4,5)-pyrazola-7(1,3)-cyclopentanacyclononaphane-5^6-yl)piperazin-1-yl)-3-fluoropiperidin-1-yl)-4,6-dimethylpyridin-2-yl)piperidine-2,6-dione], the half-maximal degradation concentration (DC50) in assay [1] amounted to 1.4 nM; in assay [2], 0.307 nM. Moreover, the Dmax was found to be 65.5% in assay [1] and 91.5% in assay [2].

In the case of `Cc1cc2cc(n1)-c1cnn(C)c1OC[C@H]1CC[C@H](C1)CN1/C(=N/C2=O)Nc2ccc(N3CCN(C4CCN(c5ccc(C6CCC(=O)NC6=O)nc5C)CC4)CC3)cc21` (some centres unmarked) [Example 2, 3-(5-(4-(4-((7^1R,7^3S,E)-1^1,2^6-dimethyl-3-oxo-5^2,5^3-dihydro-1^1H,5^1H-9-oxa-4-aza-5(2,1)-benzo[d]imidazola-2(2,4)-pyridina-1(4,5)-pyrazola-7(1,3)-cyclopentanacyclononaphane-5^6-yl)piperazin-1-yl)piperidin-1-yl)-6-methylpyridin-2-yl)piperidine-2,6-dione], in assay [1], half-maximal degradation (DC50) was put at 1.38 nM and the Dmax came to 72.6%. For the same molecule, in assay [2], the DC50 is 0.879 nM and the Dmax was determined as 87.2%.

In the case of `Cc1cc2cc(n1)-c1cnn(C)c1OC[C@H]1CC[C@H](C1)CN1/C(=N/C2=O)Nc2ccc(N3CCN(C4CCN(c5cc(F)c([C@H]6CCC(=O)NC6=O)c(F)c5)CC4)CC34COC4)cc21` [Example 10, (R)-3-(4-(4-(5-((7^1R,7^3S,E)-1^1,2^6-dimethyl-3-oxo-5^2,5^3-dihydro-1^1H,5^1H-9-oxa-4-aza-5(2,1)-benzo[d]imidazola-2(2,4)-pyridina-1(4,5)-pyrazola-7(1,3)-cyclopentanacyclononaphane-5^6-yl)-2-oxa-5,8-diazaspiro[3.5]nonan-8-yl)piperidin-1-yl)-2,6-difluorophenyl)piperidine-2,6-dione], in assay [1], half-maximal degradation (DC50) was put at 3.15 nM and the Dmax amounted to 66.8%. In assay [2], the DC50 was determined as 4.07 nM and the Dmax was 73%.

For `Cc1cc2cc(n1)-c1cnn(C)c1OC[C@H]1CC[C@H](C1)CN1/C(=N/C2=O)Nc2ccc(N3CCN([C@@H]4CCN(c5ccc(C6CCC(=O)NC6=O)nc5C)C[C@@H]4F)CC3)cc21` (stereo partly drawn) [Example 12, 3-(5-((3S,4R)-4-(4-((7^1R,7^3S,E)-1^1,2^6-dimethyl-3-oxo-5^2,5^3-dihydro-1^1H,5^1H-9-oxa-4-aza-5(2,1)-benzo[d]imidazola-2(2,4)-pyridina-1(4,5)-pyrazola-7(1,3)-cyclopentanacyclononaphane-5^6-yl)piperazin-1-yl)-3-fluoropiperidin-1-yl)-6-methylpyridin-2-yl)piperidine-2,6-dione], in assay [1], it took 0.774 nM to reach half-maximal degradation (DC50) and the Dmax came to 88.4%. Also, in assay [2], it took 0.493 nM to reach half-maximal degradation (DC50) and the Dmax came out at 90%.

Turning to `COC[C@H]1CN(c2ccc3c(c2)N2C[C@@H]4CC[C@H](COc5c(c(C)nn5C)-c5cc(cc(C)n5)C(=O)/N=C/2N3)C4)CCN1C1CCN(c2c(C)cc(NC3CCC(=O)NC3=O)nc2C)CC1` (stereo partly drawn) [Example 159, 3-((5-(4-((R)-2-(methoxymethyl)-4-((7^1R,7^3S,E)-1^1,1^3,2^6-trimethyl-3-oxo-5^2,5^3-dihydro-1^1H,5^1H-9-oxa-4-aza-5(2,1)-benzo[d]imidazola-2(2,4)-pyridina-1(4,5)-pyrazola-7(1,3)-cyclopentanacyclononaphane-5^6-yl)piperazin-1-yl)piperidin-1-yl)-4,6-dimethylpyridin-2-yl)amino)piperidine-2,6-dione], in assay [1], half-maximal degradation (DC50) was put at 3.75 nM and the Dmax was determined as 81.3%. In assay [2], it took 9.56 nM to reach half-maximal degradation (DC50) and the Dmax amounted to 77.5%.

`Cc1cc2cc(n1)-c1cnn(C)c1OC[C@@H]1CC[C@@H](C1)CN1/C(=N/C2=O)Nc2ccc(N3CCN(C4CCN(c5ccc(C6CCC(=O)NC6=O)nc5C)CC4)CC3)cc21` (some centres unmarked) [Example 3, 3-(5-(4-(4-((7^1S,7^3R,E)-1^1,2^6-dimethyl-3-oxo-5^2,5^3-dihydro-1^1H,5^1H-9-oxa-4-aza-5(2,1)-benzo[d]imidazola-2(2,4)-pyridina-1(4,5)-pyrazola-7(1,3)-cyclopentanacyclononaphane-5^6-yl)piperazin-1-yl)piperidin-1-yl)-6-methylpyridin-2-yl)piperidine-2,6-dione]: in assay [1], it took 16.4 nM to reach half-maximal degradation (DC50) and the Dmax was determined as 44%. Also, in assay [2], half-maximal degradation (DC50) was put at 20.1 nM and the Dmax is 72.7%.

With `Cc1cc2cc(n1)-c1cnn(C)c1OC[C@H]1CC[C@H](C1)CN1/C(=N/C2=O)Nc2ccc(N3CCN([C@@H]4CCN(c5cnc(C6CCC(=O)NC6=O)cc5C)C[C@@H]4F)CC3)cc21` (stereo partly drawn) [Example 21, 3-(5-((3S,4R)-4-(4-((7^1R,7^3S,E)-1^1,2^6-dimethyl-3-oxo-5^2,5^3-dihydro-1^1H,5^1H-9-oxa-4-aza-5(2,1)-benzo[d]imidazola-2(2,4)-pyridina-1(4,5)-pyrazola-7(1,3)-cyclopentanacyclononaphane-5^6-yl)piperazin-1-yl)-3-fluoropiperidin-1-yl)-4-methylpyridin-2-yl)piperidine-2,6-dione], the DC50 came out at 0.782 nM in assay [1] and 2.99 nM in assay [2]. For the same molecule, the Dmax in assay [1] was 83.2%; in assay [2], 99%.
